Where two headings read alike, the source gives them in different places.
Assays:
CaV2.2 = target: T1, CaV2.2 (Homo sapiens, UniProt Q00975); experiment: High-throughput CaV2.2/Kir2.3 FLIPR fluorescent assay; assay type: cell-based; details: Fluo-4 FLIPR, closed or inactivated state not stated, read-out: FLIPR data CaV2.2
T1 construct: expressed in transfected cells; host or cells: unnamed doxycycline-inducible cell line
Summary of the method: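 IC50 was derived by logistic fitting of the FLIPR Fluo-4 signal recorded over 3 min after a 130 mM KCl stimulus. Before stimulation, cells (channel expression induced with doxycycline, 29 °C on assay day) were kept in pH 7.4 buffer with 2 mM KCl for the closed-state format or 12.5 mM KCl for the inactivated-state format.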

CaV3.2 = target: T2, CaV3.2 (Homo sapiens, UniProt O95180); experiment: High-throughput CaV3.2/Kir2.3 T-type FLIPR fluorescent assay; assay type: cell-based; details: Fluo-4 FLIPR, closed or inactivated state not stated
T2 construct: expressed in transfected cells; host or cells: unnamed doxycycline-inducible cell line
T2 sequence (O95180 whole entry): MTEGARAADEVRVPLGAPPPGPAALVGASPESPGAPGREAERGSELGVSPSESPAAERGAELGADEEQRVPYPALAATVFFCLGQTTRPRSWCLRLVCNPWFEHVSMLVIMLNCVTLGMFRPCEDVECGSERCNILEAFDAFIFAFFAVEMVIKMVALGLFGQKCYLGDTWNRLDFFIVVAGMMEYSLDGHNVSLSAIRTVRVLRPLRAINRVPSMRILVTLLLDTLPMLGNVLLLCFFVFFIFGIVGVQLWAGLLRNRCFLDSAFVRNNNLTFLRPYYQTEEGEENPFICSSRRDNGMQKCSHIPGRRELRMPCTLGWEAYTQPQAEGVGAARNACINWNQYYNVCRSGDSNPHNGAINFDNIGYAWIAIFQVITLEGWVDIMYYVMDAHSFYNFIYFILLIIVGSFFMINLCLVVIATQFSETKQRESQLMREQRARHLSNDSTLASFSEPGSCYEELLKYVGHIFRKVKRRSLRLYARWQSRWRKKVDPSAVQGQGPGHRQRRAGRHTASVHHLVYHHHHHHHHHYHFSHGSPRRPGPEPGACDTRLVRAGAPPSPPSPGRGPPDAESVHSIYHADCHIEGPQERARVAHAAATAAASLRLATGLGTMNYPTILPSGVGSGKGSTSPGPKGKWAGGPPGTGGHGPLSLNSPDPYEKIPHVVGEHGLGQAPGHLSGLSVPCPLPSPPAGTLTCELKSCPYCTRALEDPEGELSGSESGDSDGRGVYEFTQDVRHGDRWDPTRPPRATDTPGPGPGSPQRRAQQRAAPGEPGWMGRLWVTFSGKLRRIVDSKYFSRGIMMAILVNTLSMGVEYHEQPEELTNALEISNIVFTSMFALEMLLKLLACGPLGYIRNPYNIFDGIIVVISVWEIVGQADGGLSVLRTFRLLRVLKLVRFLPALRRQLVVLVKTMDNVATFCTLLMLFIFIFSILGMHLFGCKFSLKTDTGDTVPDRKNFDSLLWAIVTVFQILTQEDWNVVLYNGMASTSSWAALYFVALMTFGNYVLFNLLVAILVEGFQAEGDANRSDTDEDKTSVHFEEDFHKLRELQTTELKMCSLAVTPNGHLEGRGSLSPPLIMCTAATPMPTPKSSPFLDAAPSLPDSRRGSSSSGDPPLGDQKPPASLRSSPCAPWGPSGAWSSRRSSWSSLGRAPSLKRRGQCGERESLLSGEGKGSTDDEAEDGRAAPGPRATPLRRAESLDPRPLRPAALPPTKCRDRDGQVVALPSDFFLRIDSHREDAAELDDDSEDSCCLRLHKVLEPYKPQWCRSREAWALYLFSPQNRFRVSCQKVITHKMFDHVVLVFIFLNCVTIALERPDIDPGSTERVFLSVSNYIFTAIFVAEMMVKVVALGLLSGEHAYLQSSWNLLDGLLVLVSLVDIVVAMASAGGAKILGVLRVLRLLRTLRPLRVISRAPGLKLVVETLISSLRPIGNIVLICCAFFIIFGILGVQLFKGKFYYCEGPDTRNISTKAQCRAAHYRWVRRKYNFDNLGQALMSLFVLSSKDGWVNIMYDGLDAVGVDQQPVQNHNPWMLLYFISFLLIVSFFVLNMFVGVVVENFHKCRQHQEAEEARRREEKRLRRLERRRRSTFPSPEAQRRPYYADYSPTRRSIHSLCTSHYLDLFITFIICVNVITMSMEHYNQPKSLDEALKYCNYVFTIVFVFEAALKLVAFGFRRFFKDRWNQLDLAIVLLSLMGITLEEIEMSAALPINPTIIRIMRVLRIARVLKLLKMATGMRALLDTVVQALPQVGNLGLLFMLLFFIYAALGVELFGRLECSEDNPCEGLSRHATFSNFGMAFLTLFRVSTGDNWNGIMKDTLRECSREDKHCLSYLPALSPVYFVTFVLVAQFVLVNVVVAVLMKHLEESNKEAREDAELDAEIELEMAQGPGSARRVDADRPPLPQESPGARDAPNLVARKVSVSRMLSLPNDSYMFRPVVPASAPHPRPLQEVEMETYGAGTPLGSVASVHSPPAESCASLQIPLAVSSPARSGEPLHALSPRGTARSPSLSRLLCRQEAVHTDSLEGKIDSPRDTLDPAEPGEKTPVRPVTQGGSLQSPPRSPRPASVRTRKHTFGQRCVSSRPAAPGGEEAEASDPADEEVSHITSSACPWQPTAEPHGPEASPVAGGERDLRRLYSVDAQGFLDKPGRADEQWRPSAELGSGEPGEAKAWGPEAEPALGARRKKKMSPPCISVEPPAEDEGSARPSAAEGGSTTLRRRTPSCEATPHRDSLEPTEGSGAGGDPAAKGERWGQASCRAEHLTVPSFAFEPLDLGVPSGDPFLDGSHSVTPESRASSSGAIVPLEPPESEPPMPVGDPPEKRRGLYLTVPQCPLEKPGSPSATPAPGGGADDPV
Method: Cells were plated in 384-well, clear-bottom, black-walled, poly-D-lysine coated plates (Becton Dickinson, Franklin Lake, N.J.) 2 days prior to use in the FLIPR assay. 100 µL of cells (1.2×10^6 cell/mL) containing doxycyline (Sigma-Aldrich, 1.5 μg/mL; to induce channel expression) were added to each well using a Multidrop (Thermo Scientific, Waltham, Mass.) and were maintained in 5% CO2 incubator at 37° C. On the morning of the assay, cells were transferred to a 5% CO2 incubator at 29° C.
Cells were washed with a wash buffer containing (in mM): 118 NaCl, 18.4 HEPES, 11.7 D-glucose, 2 CaCl2, 0.5 MgSO4, 4.7 KCl, and 1.2 KH2PO4, with the pH adjusted to 7.2 with
NaOH. 4.4 μM of the fluorescent indicator dye Fluo-4 (Invitrogen) prepared in pluronic acid (Sigma-Aldrich) was loaded into the wells and incubated for 45 minutes at 29° C. in 5% CO2. Cells were then rinsed with either a 2 mM KCl closed-state buffer (in mM: 138.5 NaCl, 10 HEPES, 10 D-glucose, 1 CaCl2, and 2 KCl, with the pH adjusted to 7.4 with NaOH) when performing the closed-state assay or 7.6 mM KCl inactivated-state buffer (in mM: 130.9 NaCl, 10 HEPES, 10 D-glucose, 1 CaCl2, and 7.6 mM KCl, with the pH adjusted to 7.4 with NaOH) when performing the inactivated-state assay. Concentration-dependent response curves were generated from 5 mM stock solutions prepared in DMSO (Sigma-Aldrich), diluted in either the 2 mM KCl buffer or 7.6 mM KCl buffer, and incubated for 20 minutes at 29° C. in 5% CO2. Calcium entry was evoked with an addition of either 12 mM KCl stimulation buffer (in mM: 128.5 NaCl, 10 HEPES, 10 D-glucose, 1 CaCl2, and 12 KCl, with the pH adjusted to 7.4 with NaOH) or 14.5 mM KCl stimulation buffer (in mM: 126 NaCl, 10 HEPES, 10 D-glucose, 1 CaCl2, and 14.5 KCl, with the pH adjusted to 7.4 with NaOH) for the closed-state or inactivated-state assay respectively. A change in the Fluo-4 fluorescence signal was assessed using FLIPR^TETRA™ instrument (Molecular Devices, Sunnyvale, Calif.) for 3 minutes following the elevation of extracellular KCl using an illumination wavelength of 470-495 nm with emissions recorded at 515-575 nm.
Concentration-dependent response curves were obtained by comparing the fluorescence signal in the presence of compound and fitted with a logistic function (1) to obtain the concentration that inhibited 50% (IC50) of the RLU signal using OriginPro v.7.5 software (OriginLab, Northampton, Mass.).
To assess the quality of the FLIPR assays the Z-factor (2) was used to quantify the suitability of the assay conditions using the following equation: […]
Data are expressed as mean and standard deviation (SD).

| SMILES | IC50 (CaV2.2; Table 5) [nM] | IC50 (CaV3.2; Table 5) [nM] | IC50 (CaV2.2; Table 4) [nM] | IC50 (CaV3.2; Table 4) [nM] |
| --- | --- | --- | --- | --- |
| COc1cc(C)ccc1C(=O)NCC(C)(C)S(=O)(=O)c1cccc(C(F)(F)F)c1 [Compound 170, 2-methoxy-4-methyl-N-(2-methyl-2-((3-(trifluoromethyl)phenyl)sulfonyl)propyl)benzamide] | 1860 | 7210 | – | – |
| CC(C)(CNC(=O)c1cncc(C(F)(F)F)c1)S(=O)(=O)c1cccc(C(F)(F)F)c1 [Compound 176, N-(2-methyl-2-((3-(trifluoromethyl)phenyl)sulfonyl)propyl)-5-(trifluoromethyl)nicotinamide] | 1310 | 5340 | – | – |
| NC1(C(=O)NCc2ccc(S(=O)(=O)c3cccc(C(F)(F)F)c3)cc2)CCC2(CC1)OCCO2 [Compound 83, 8-amino-N-(4-((3-(trifluoromethyl)phenyl)sulfonyl)benzyl)-1,4-dioxaspiro[4.5]decane-8-carboxamide] | – | – | 1310 | 9220 |
| CC(C)(CNC(=O)c1ccc(Cl)cc1)S(=O)(=O)c1cccc(C(F)(F)F)c1 [Compound 165, 4-chloro-N-(2-methyl-2-((3-(trifluoromethyl)phenyl)sulfonyl)propyl)benzamide] | 1530 | 6500 | – | – |
| NC1(CC(=O)NCc2ccc(S(=O)(=O)c3cccc(C(F)(F)F)c3)cc2)CCCCC1 [Compound 86, 2-(1-aminocyclohexyl)-N-(4-((3-(trifluoromethyl)phenyl)sulfonyl)benzyl)acetamide] | – | – | 310 | 5500 |
| CC(C)(CCN1Cc2nc(C(F)(F)F)ccc2C1=O)S(=O)(=O)c1cccc(C(F)(F)F)c1 [Compound 188, 6-(3-methyl-3-((3-(trifluoromethyl)phenyl)sulfonyl)butyl)-2-(trifluoromethyl)-6,7-dihydro-5H-pyrolo[3,4-b]pyridine-5-one] | 420 | 5540 | – | – |
| COc1ccc(C(=O)NCC(C)(C)S(=O)(=O)c2cccc(C(F)(F)F)c2)cc1Cl [Compound 160, 3-chloro-4-methoxy-N-(2-methyl-2-((3-(trifluoromethyl)phenyl)sulfonyl)propyl)benzamide] | 1020 | 3990 | – | – |
| Cc1cc(Cl)ccc1C(=O)NCC(C)(C)S(=O)(=O)c1cccc(C(F)(F)F)c1 [Compound 168, 4-chloro-2-methyl-N-(2-methyl-2-((3-(trifluoromethyl)phenyl)sulfonyl)propyl)benzamide] | 1020 | 5160 | – | – |
| CC(C)(C(=O)N1CCC(c2nc3ccccc3[nH]2)CC1)S(=O)(=O)c1cccc(C(F)(F)F)c1 [Compound 138, 1-(4-(1H-benzol[d]imidazol-2-yl)piperidin-1-yl)-2-methyl-2-((3-(trifluoromethyl)phenyl)sulfonyl)propan-1-one] | 1480 | 5100 | – | – |
| CC(C)(C(=O)NCc1cccnc1Oc1ccc(F)cc1)S(=O)(=O)c1cccc(C(F)(F)F)c1 [Compound 146, N-((2-(4-fluorophenoxy)pyridin-3-yl)methyl)-2-methyl-2-((3-(trifluoromethyl)phenyl)sulfonyl)propanamide] | 440 | 7210 | – | – |

Reference: patent US20140113898A1, “BISARYLSULFONE AND DIALKYLARYLSULFONE COMPOUNDS AS CALCIUM CHANNEL BLOCKERS” (Zalicus Pharmaceuticals Ltd., priority 2010, published 2014)
